# PubChem BioAssay (NCI)
#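 96-well plates; 48 h exposure; 5 concentrations. Endpoints by linear interpolation between flanking doses. Not reached: highest tested concentration assigned. TGI: total growth inhibition.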
# Assays:
# Experiment in all cases: growth of human tumour cells (NCI), 48 h
# [1] = test system: 786-0 renal
# [2] = test system: A498 renal
# [3] = test system: A549 NSCLC
# [4] = test system: ACHN renal
# [5] = test system: BT-549 breast
# [6] = test system: CAKI-1 renal
# [7] = test system: CCRF-CEM leukemia
# [8] = test system: COLO 205 colon
# [9] = test system: DU-145 prostate
# [10] = test system: EKVX NSCLC
# [11] = test system: HCC-2998 colon
# [12] = test system: HCT-116 colon
# [13] = test system: HCT-15 colon
# [14] = test system: HL-60(TB) leukemia
# [15] = test system: HOP-62 NSCLC
# [16] = test system: HOP-92 NSCLC
# [17] = test system: HS 578T breast
# [18] = test system: HT29 colon
# [19] = test system: IGROV1 ovarian
# [20] = test system: K-562 leukemia
# [21] = test system: KM12 colon
# [22] = test system: LOX IMVI melanoma
# [23] = test system: M14 melanoma
# [24] = test system: MALME-3M melanoma
# [25] = test system: MCF7 breast
# [26] = test system: MDA-MB-231 breast
# [27] = test system: MDA-MB-435
# [28] = test system: MDA-N
# [29] = test system: MOLT-4 leukemia
# [30] = test system: NCI-H226 lung
# [31] = test system: NCI-H23 lung
# [32] = test system: NCI-H460 lung
# [33] = test system: NCI-H522 lung
# [34] = test system: NCI/ADR-RES ovarian
# [35] = test system: OVCAR-3 ovarian
# [36] = test system: OVCAR-4 ovarian
# [37] = test system: OVCAR-5 ovarian
# [38] = test system: OVCAR-8 ovarian
# [39] = test system: PC-3 prostate
# [40] = test system: RXF 393 renal
# [41] = test system: SF-268 CNS
# [42] = test system: SF-295 CNS
# [43] = test system: SF-539 CNS
# [44] = test system: SK-MEL-2 melanoma
# [45] = test system: SK-MEL-28 melanoma
# [46] = test system: SK-MEL-5 melanoma
# [47] = test system: SK-OV-3 ovarian
# [48] = test system: SN12C renal
# [49] = test system: SNB-19 CNS
# [50] = test system: SNB-75 CNS
# [51] = test system: SR leukemia
# [52] = test system: SW-620 colon
# [53] = test system: T-47D breast
# [54] = test system: TK-10 renal
# [55] = test system: U251 CNS
# [56] = test system: UACC-257 melanoma
# [57] = test system: UACC-62 melanoma
# [58] = test system: UO-31 renal
# [59] = test system: RPMI-8226 leukemia
smiles,measurement,setting,value
COc1ccc2c(c1)Cc1c(NCCN(C)C)ccc(C(=O)NCCCN(C)CCCNC(=O)c3ccc(NCCN(C)C)c4c3Nc3ccc(OC)cc3C4)c1N2,TGI,[1],985 nM
same,TGI,[2],833 nM
same,TGI,[3],512 nM
same,TGI,[4],9790 nM
same,TGI,[5],1500 nM
same,TGI,[6],11900 nM
same,TGI,[7],5490 nM
same,TGI,[8],207 nM
same,TGI,[9],1040 nM
same,TGI,[10],643 nM
same,TGI,[11],168 nM
same,TGI,[12],239 nM
same,TGI,[13],> 74300 nM
same,TGI,[14],1170 nM
same,TGI,[15],1020 nM
same,TGI,[16],2790 nM
same,TGI,[17],332 nM
same,TGI,[18],566 nM
same,TGI,[19],3950 nM
same,TGI,[20],3140 nM
same,TGI,[21],887 nM
same,TGI,[22],766 nM
same,TGI,[23],1790 nM
same,TGI,[24],209 nM
same,TGI,[25],615 nM
same,TGI,[26],419 nM
same,TGI,[27],191 nM
same,TGI,[28],224 nM
same,TGI,[29],2620 nM
same,TGI,[30],241 nM
same,TGI,[31],581 nM
same,TGI,[32],175 nM
same,TGI,[33],51.4 nM
same,TGI,[34],> 100000 nM
same,TGI,[35],1210 nM
same,TGI,[36],448 nM
same,TGI,[37],631 nM
same,TGI,[38],2860 nM
same,TGI,[39],838 nM
same,TGI,[40],1850 nM
same,TGI,[41],327 nM
same,TGI,[42],3520 nM
same,TGI,[43],2240 nM
same,TGI,[44],226 nM
same,TGI,[45],1460 nM
same,TGI,[46],1720 nM
same,TGI,[47],502 nM
same,TGI,[48],624 nM
same,TGI,[49],1130 nM
same,TGI,[50],103 nM
same,TGI,[51],502 nM
same,TGI,[52],8650 nM
same,TGI,[53],12500 nM
same,TGI,[54],4880 nM
same,TGI,[55],1100 nM
same,TGI,[56],1100 nM
same,TGI,[57],365 nM
same,TGI,[58],14200 nM
O=C(O)c1cc(-c2ccc3cc4c(cc3c2)OCO4)nc2ccccc12,TGI,[1],> 100000 nM
same,TGI,[2],75100 nM
same,TGI,[3],> 100000 nM
same,TGI,[4],> 100000 nM
same,TGI,[5],> 100000 nM
same,TGI,[7],35400 nM
same,TGI,[8],> 100000 nM
same,TGI,[9],> 100000 nM
same,TGI,[10],83000 nM
same,TGI,[12],> 100000 nM
same,TGI,[13],> 100000 nM
same,TGI,[14],> 100000 nM
same,TGI,[15],> 100000 nM
same,TGI,[16],87900 nM
same,TGI,[17],> 100000 nM
same,TGI,[18],> 100000 nM
same,TGI,[19],> 100000 nM
same,TGI,[20],> 100000 nM
same,TGI,[21],> 100000 nM
same,TGI,[22],> 100000 nM
same,TGI,[23],> 100000 nM
same,TGI,[24],> 100000 nM
same,TGI,[25],> 100000 nM
same,TGI,[26],> 100000 nM
same,TGI,[27],> 100000 nM
same,TGI,[28],> 100000 nM
same,TGI,[29],> 100000 nM
same,TGI,[30],> 100000 nM
same,TGI,[31],> 100000 nM
same,TGI,[32],42700 nM
same,TGI,[33],> 100000 nM
same,TGI,[34],> 100000 nM
same,TGI,[35],> 100000 nM
same,TGI,[36],> 100000 nM
same,TGI,[37],> 100000 nM
same,TGI,[38],> 100000 nM
same,TGI,[39],> 100000 nM
same,TGI,[59],> 100000 nM
same,TGI,[40],> 100000 nM
same,TGI,[41],> 100000 nM
same,TGI,[42],> 100000 nM
same,TGI,[43],> 100000 nM
same,TGI,[44],> 100000 nM
same,TGI,[45],> 100000 nM
same,TGI,[46],> 100000 nM
same,TGI,[47],> 100000 nM
same,TGI,[48],> 100000 nM
same,TGI,[49],> 100000 nM
same,TGI,[50],> 100000 nM
same,TGI,[51],88900 nM
same,TGI,[52],> 100000 nM
same,TGI,[53],> 100000 nM
same,TGI,[54],> 100000 nM
same,TGI,[55],> 100000 nM
same,TGI,[56],35400 nM
same,TGI,[57],> 100000 nM
same,TGI,[58],28100 nM
